Measured values published in publication PMC7357027 (Biomolecules, 2020).
Entries after “also recorded” stand apart in the source; their conditions may differ. Read-outs that look alike come from different tables or passages of the source.

Molecular target: neuraminidase from Clostridium perfringens (Clostridium perfringens, UniProt A0A0H2YQR1)
Type: biochemical
Conditions: for Type of Inhibition: Lineweaver-Burk plot

Chain of neuraminidase from Clostridium perfringens (A0A0H2YQR1 42-694 limits assumed): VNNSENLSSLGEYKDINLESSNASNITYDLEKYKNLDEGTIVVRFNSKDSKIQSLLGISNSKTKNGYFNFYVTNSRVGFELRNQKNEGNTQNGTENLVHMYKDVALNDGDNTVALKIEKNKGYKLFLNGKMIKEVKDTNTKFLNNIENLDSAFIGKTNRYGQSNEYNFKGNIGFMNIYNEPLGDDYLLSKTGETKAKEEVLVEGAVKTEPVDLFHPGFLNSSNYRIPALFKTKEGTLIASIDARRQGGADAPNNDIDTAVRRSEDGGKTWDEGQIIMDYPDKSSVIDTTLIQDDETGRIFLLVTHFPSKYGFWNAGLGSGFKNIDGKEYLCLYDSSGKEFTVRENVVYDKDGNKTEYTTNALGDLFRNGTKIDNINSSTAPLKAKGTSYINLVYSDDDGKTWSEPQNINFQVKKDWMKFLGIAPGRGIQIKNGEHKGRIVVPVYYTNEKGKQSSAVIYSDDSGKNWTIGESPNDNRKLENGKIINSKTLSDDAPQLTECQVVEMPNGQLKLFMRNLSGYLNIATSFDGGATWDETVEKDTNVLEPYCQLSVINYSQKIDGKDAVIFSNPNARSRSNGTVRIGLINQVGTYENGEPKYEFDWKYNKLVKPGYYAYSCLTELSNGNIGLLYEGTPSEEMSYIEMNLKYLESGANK

SMILES	Type of Inhibition	Type of Inhibition (listed as Bakkenolide D (2))	Type of Inhibition (listed as 1,5-di-O-caffeoylquinic acid (3, 1,5-COQ))	reversibility of inhibition (remaining enzyme activity versus enzyme concentration at different inhibitor concentrations (Figure 2b))	Type of Inhibition (listed as 5-O-Caffeoylquinic acid (4, 5-COQ))
C=C1COC(=O)[C@]12C[C@@]1(C)C([C@@H](OC(=O)/C=C\SC)CC[C@@H]1C)[C@H]2OC(C)=O (stereo partly shown) [compound 2, Bakkenolide D]	non-competitive inhibition	non-competitive inhibitor; also recorded: Noncompetitive			
O=C(/C=C/c1ccc(O)c(O)c1)O[C@@H]1C[C@](OC(=O)/C=C/c2ccc(O)c(O)c2)(C(=O)O)C[C@@H](O)[C@H]1O [compound 3, 1,5-di-O-Caffeoylquinic Acid]	competitive inhibitor		Competitive	reversible inhibitor	
O=C(/C=C/c1ccc(O)c(O)c1)O[C@@H]1C[C@](O)(C(=O)O)C[C@@H](O)[C@H]1O [compound 4, 5-O-Caffeoylquinic Acid]	competitive inhibitor				Competitive
